In US20250179103A1, “6-OXODECAHYDROPYRROLO[1,2-A][1,5]DIAZOCINE AND 6-OXODECAHYDRO-4H-PYRROLO[2,1-D][1,5]THIAZOCINE DERIVATIVES AS STAT3 AND STAT6 MODULATORS FOR THE TREATMENT OF CANCER AND INFLAMMATORY CONDITIONS” (Recludix Pharma, Inc., priority 2022, published 2025):

How the values were obtained:
[1] = molecular target: T1, Recombinant STAT6 protein (STAT6(W123-T658)) (Homo sapiens, UniProt P42226); assay: STAT6 Fluorescence Polarization (FP) Assay; type: binding; settings: STAT6(W123-T658) 250 nM, probe 5-FAM-ApYKPFQDLI-NH2 2 nM, 45-minute incubation
T1 construct: Recombinant STAT6 protein (STAT6(W123-T658))
T1 sequence (P42226 123-658): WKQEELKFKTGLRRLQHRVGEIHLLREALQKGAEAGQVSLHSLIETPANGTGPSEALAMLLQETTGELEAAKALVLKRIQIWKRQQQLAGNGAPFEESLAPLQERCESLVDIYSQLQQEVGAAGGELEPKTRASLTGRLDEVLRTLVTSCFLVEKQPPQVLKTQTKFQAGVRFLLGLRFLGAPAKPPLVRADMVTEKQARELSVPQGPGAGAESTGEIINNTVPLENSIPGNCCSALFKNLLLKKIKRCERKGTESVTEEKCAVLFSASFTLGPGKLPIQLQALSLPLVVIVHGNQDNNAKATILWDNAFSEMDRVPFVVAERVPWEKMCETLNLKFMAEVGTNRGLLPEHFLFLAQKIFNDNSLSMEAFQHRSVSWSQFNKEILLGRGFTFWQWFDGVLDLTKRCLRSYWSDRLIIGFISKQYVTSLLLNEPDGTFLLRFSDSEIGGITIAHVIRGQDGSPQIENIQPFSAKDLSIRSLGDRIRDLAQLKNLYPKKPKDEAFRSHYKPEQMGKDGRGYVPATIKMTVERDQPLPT
Procedure, shortened: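 Displacement of a fluorescent phosphotyrosine peptide (5-FAM-ApYKPFQDLI-NH2, 2 nM) from STAT6(W123-T658) (250 nM), 1% DMSO, pH 7.4 HEPES buffer. After 45 min at room temperature, polarization (mP) was plotted versus log compound concentration and fitted by nonlinear regression to give IC50.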

[2] = molecular target: T2, Recombinant STAT3 protein (STAT3(G127-I722)) (Homo sapiens, UniProt P40763); assay: STAT3 Fluorescence Polarization (FP) Assay; type: binding; settings: STAT3(G127-I722) 25 nM, probe 5-FAM-GpYLPQTV-NH2 2 nM, 45-minute incubation
T2 construct: Recombinant STAT3 protein (STAT3(G127-I722))
T2 sequence (P40763 127-722): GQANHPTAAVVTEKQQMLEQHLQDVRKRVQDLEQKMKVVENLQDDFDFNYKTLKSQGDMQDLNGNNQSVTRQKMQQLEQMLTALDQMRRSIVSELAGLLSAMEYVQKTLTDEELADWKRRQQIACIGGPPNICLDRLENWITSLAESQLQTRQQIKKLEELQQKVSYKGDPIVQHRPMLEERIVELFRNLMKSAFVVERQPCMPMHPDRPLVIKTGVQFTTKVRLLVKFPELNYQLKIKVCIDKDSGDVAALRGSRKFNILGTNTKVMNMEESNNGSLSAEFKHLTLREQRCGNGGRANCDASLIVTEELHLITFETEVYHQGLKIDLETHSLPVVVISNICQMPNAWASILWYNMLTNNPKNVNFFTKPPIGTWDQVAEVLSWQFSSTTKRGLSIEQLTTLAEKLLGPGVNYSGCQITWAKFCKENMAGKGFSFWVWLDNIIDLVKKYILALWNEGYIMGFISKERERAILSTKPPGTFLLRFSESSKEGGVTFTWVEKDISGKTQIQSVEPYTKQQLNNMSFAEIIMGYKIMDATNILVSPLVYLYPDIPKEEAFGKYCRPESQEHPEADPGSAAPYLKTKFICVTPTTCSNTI
Procedure, shortened: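 STAT3(G127-I722), 25 nM, was mixed with 2 nM 5-FAM-GpYLPQTV-NH2 probe in HEPES pH 7.4 buffer with 1% DMSO and serially diluted compound. FP (mP) was read after 45 min at room temperature. IC50 came from nonlinear regression.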

Structure (SMILES)	IC50 [1] [nM]	IC50 [2] [nM]
CC(=O)N1CC[C@H]2CC[C@@H](C(=O)N3CC(C(=O)N4CCCCC4)C3)N2C(=O)[C@@H](NC(=O)c2cc3cc(C(F)(F)P(=O)(O)O)ccc3[nH]2)C1 [Compound 128, ((2-(((5S,8S,10aR)-3-acetyl-6-oxo-8-(3-(piperidine-1-carbonyl)azetidine-1-carbonyl)decahydropyrrolo[1,2-a][1,5]diazocin-5-yl)carbamoyl)-1H-indol-5-yl)difluoromethyl)phosphonic acid]	300 to 3000	100 to 1000
CC(=O)N1CC[C@H]2CC[C@@H](C(=O)N3CCC[C@@H]3Cc3ccccc3)N2C(=O)[C@@H](NC(=O)c2cc3cc(C(F)(F)P(=O)(O)O)ccc3[nH]2)C1 [Compound 129, ((2-(((5S,8S,10aR)-3-acetyl-8-((R)-2-benzylpyrrolidine-1-carbonyl)-6-oxodecahydropyrrolo[1,2-a][1,5]diazocin-5-yl)carbamoyl)-1H-indol-5-yl)difluoromethyl)phosphonic acid]	300 to 3000	1000 to 10000
CC(=O)N1CC[C@H]2CC[C@@H](C(=O)N3CCCC3Cc3ccc(F)cc3)N2C(=O)[C@@H](NC(=O)c2cc3cc(C(F)(F)P(=O)(O)O)ccc3[nH]2)C1 (stereo partly drawn) [Compound 130, ((2-(((5S,8S,10aR)-3-acetyl-8-(2-(4-fluorobenzyl)pyrrolidine-1-carbonyl)-6-oxodecahydropyrrolo[1,2-a][1,5]diazocin-5-yl)carbamoyl)-1H-indol-5-yl)difluoromethyl)phosphonic acid]	300 to 3000	1000 to 10000
COc1ccc(CC2CCCN2C(=O)[C@@H]2CC[C@@H]3CCN(C(C)=O)C[C@H](NC(=O)c4cc5cc(C(F)(F)P(=O)(O)O)ccc5[nH]4)C(=O)N32)cc1 (stereo partly drawn) [Compound 131, ((2-(((5S,8S,10aR)-3-acetyl-8-(2-(4-methoxybenzyl)pyrrolidine-1-carbonyl)-6-oxodecahydropyrrolo[1,2-a][1,5]diazocin-5-yl)carbamoyl)-1H-indol-5-yl)difluoromethyl)phosphonic acid]	300 to 3000	1000 to 10000
CC(=O)N1CC[C@H]2CC[C@@H](C(=O)N3CCCC3Cc3cccc(Cl)c3)N2C(=O)[C@@H](NC(=O)c2cc3cc(C(F)(F)P(=O)(O)O)ccc3[nH]2)C1 (stereo partly drawn) [Compound 132, ((2-(((5S,8S,10aR)-3-acetyl-8-(2-(3-chlorobenzyl)pyrrolidine-1-carbonyl)-6-oxodecahydropyrrolo[1,2-a][1,5]diazocin-5-yl)carbamoyl)-1H-indol-5-yl)difluoromethyl)phosphonic acid]	300 to 3000	1000 to 10000
CC(=O)N1CC[C@H]2CC[C@@H](C(=O)N3CCCC3Cc3ccccc3F)N2C(=O)[C@@H](NC(=O)c2cc3cc(C(F)(F)P(=O)(O)O)ccc3[nH]2)C1 (stereo partly drawn) [Compound 133, ((2-(((5S,8S,10aR)-3-acetyl-8-(2-(2-fluorobenzyl)pyrrolidine-1-carbonyl)-6-oxodecahydropyrrolo[1,2-a][1,5]diazocin-5-yl)carbamoyl)-1H-indol-5-yl)difluoromethyl)phosphonic acid]	300 to 3000	1000 to 10000
CC(=O)N1CC[C@H]2CC[C@@H](C(=O)N(C)C3CCCCC3)N2C(=O)[C@@H](NC(=O)c2cc3cc(C(F)(F)P(=O)(O)O)ccc3[nH]2)C1 [Compound 134]	300 to 3000	1000 to 10000
COCCOc1ccc(N(C)C(=O)[C@@H]2CC[C@@H]3CCN(C(C)=O)C[C@H](NC(=O)c4cc5cc(C(F)(F)P(=O)(O)O)ccc5[nH]4)C(=O)N32)cc1 [Compound 137, ((2-(((5S,8S,10aR)-3-acetyl-8-((4-(2-methoxyethoxy)phenyl)(methyl)carbamoyl)-6-oxodecahydropyrrolo[1,2-a][1,5]diazocin-5-yl)carbamoyl)-1H-indol-5-yl)difluoromethyl)phosphonic acid]	300 to 3000	1000 to 10000
CC(=O)N1CC[C@H]2CC[C@@H](C(=O)Nc3ccn(-c4ccccc4)c(=O)c3)N2C(=O)[C@@H](NC(=O)c2cc3cc(C(F)(F)P(=O)(O)O)ccc3[nH]2)C1 [Compound 140, ((2-(((5S,8S,10aR)-3-acetyl-6-oxo-8-((2-oxo-1-phenyl-1,2-dihydropyridin-4-yl)carbamoyl)decahydropyrrolo[1,2-a][1,5]diazocin-5-yl)carbamoyl)-1H-indol-5-yl)difluoromethyl)phosphonic acid]	300 to 3000	100 to 1000
CC(=O)N1CC[C@H]2CC[C@@H](C(=O)Nc3ccc4cn(C)nc4c3)N2C(=O)[C@@H](NC(=O)c2cc3cc(C(F)(F)P(=O)(O)O)ccc3s2)C1 [Compound 157, ((2-(((5S,8S,10aR)-3-acetyl-8-((2-methyl-2H-indazol-6-yl)carbamoyl)-6-oxodecahydropyrrolo[1,2-a][1,5]diazocin-5-yl)carbamoyl)benzo[b]thiophen-5-yl)difluoromethyl)phosphonic acid]	300 to 3000	1000 to 10000

Second part, the molecule after the results:

IC50 [1] [nM]	IC50 [2] [nM]	Structure (SMILES)
300 to 3000	1000 to 10000	CC(=O)N1CC[C@H]2CC[C@@H](C(=O)N(C)c3ccc(OC(F)(F)F)cc3)N2C(=O)[C@@H](NC(=O)c2cc3cc(C(F)(F)P(=O)(O)O)ccc3[nH]2)C1 [Compound 135, ((2-(((5S,8S,10aR)-3-acetyl-8-(methyl(4-(trifluoromethoxy)phenyl)carbamoyl)-6-oxodecahydropyrrolo[1,2-a][1,5]diazocin-5-yl)carbamoyl)-1H-indol-5-yl)difluoromethyl)phosphonic acid]
≤ 300	1000 to 10000	CC(=O)N1CC[C@H]2CC[C@@H](C(=O)N(C)c3ccc(C(C)(C)C)cc3)N2C(=O)[C@@H](NC(=O)c2cc3cc(C(F)(F)P(=O)(O)O)ccc3[nH]2)C1 [Compound 136, ((2-(((5S,8S,10aR)-3-acetyl-8-((4-(tert-butyl)phenyl)(methyl)carbamoyl)-6-oxodecahydropyrrolo[1,2-a][1,5]diazocin-5-yl)carbamoyl)-1H-indol-5-yl)difluoromethyl)phosphonic acid]
300 to 3000	1000 to 10000	CC(=O)N1CC[C@H]2CC[C@@H](C(=O)N(C)c3ccc(C(C)(C)c4ccccc4)cc3)N2C(=O)[C@@H](NC(=O)c2cc3cc(C(F)(F)P(=O)(O)O)ccc3s2)C1 [Compound 155, ((2-(((5S,8S,10aR)-3-acetyl-8-(methyl(4-(2-phenylpropan-2-yl)phenyl)carbamoyl)-6-oxodecahydropyrrolo[1,2-a][1,5]diazocin-5-yl)carbamoyl)benzo[b]thiophen-5-yl)difluoromethyl)phosphonic acid]
300 to 3000	1000 to 10000	CC(=O)N1CC[C@H]2CC[C@@H](C(=O)N(C)c3ccc(C(C)(C)CO)cc3)N2C(=O)[C@@H](NC(=O)c2cc3cc(C(F)(F)P(=O)(O)O)ccc3s2)C1 [Compound 156, ((2-(((5S,8S,10aR)-3-acetyl-8-((4-(1-hydroxy-2-methylpropan-2-yl)phenyl)(methyl)carbamoyl)-6-oxodecahydropyrrolo[1,2-a][1,5]diazocin-5-yl)carbamoyl)benzo[b]thiophen-5-yl)difluoromethyl)phosphonic acid]
300 to 3000	100 to 1000	CC(=O)N1CC[C@H]2CC[C@@H](C(=O)Nc3ccc4cnccc4c3)N2C(=O)[C@@H](NC(=O)c2cc3cc(C(F)(F)P(=O)(O)O)ccc3s2)C1 [Compound 158, ((2-(((5S,8S,10aR)-3-acetyl-8-(isoquinolin-6-ylcarbamoyl)-6-oxodecahydropyrrolo[1,2-a][1,5]diazocin-5-yl)carbamoyl)benzo[b]thiophen-5-yl)difluoromethyl)phosphonic acid]
300 to 3000	1000 to 10000	CCC(C)(C)c1ccc(N(C)C(=O)[C@@H]2CC[C@@H]3CCN(C(C)=O)C[C@H](NC(=O)c4cc5cc(C(F)(F)P(=O)(O)O)ccc5s4)C(=O)N32)cc1 [Compound 159, ((2-(((5S,8S,10aR)-3-acetyl-8-(methyl(4-(tert-pentyl)phenyl)carbamoyl)-6-oxodecahydropyrrolo[1,2-a][1,5]diazocin-5-yl)carbamoyl)benzo[b]thiophen-5-yl)difluoromethyl)phosphonic acid]
300 to 3000	1000 to 10000	CC(=O)N1CC[C@H]2CC[C@@H](C(=O)N(C)c3ccc(C(C)(C)C)c(Cl)c3)N2C(=O)[C@@H](NC(=O)c2cc3cc(C(F)(F)P(=O)(O)O)ccc3s2)C1 [Compound 160, ((2-(((5S,8S,10aR)-3-acetyl-8-((4-(tert-butyl)-3-chlorophenyl)(methyl)carbamoyl)-6-oxodecahydropyrrolo[1,2-a][1,5]diazocin-5-yl)carbamoyl)benzo[b]thiophen-5-yl)difluoromethyl)phosphonic acid]
